US20090069551A1, “Flavorant Compounds” (priority 2006, published 2009)

Columns and labels:
[1] = Isoastringency: isointensity of astringent perception with a 700 μM aqueous catechin solution; assay type: in vivo; details: versus 700 μM aqueous catechin solution (pH 4.5)
[2] = Sensorial taste evaluation: taste thresholds by modified duo test with a sensory panel; assay type: in vivo; details: for taste threshold: modified duo test, sample versus tap water; for threshold concentration, times lower than the threshold concentration of catechin: relative to catechin
Source text: Sensorial taste evaluation of (E)-6-(3-hydroxyphenyl)-(4-O-β-D-glucopyranoside)hex-5-en-2-one and (3E,5E)-6-[3-Hydroxy-4-O-β-D-glucopyranoside-phenyl]-hexa-3 ,5-dien-2-one
For evaluation of taste thresholds of the isolated substances, a modified duo test is used. […] As astringent substances can remain longer on the tongue or possibly can be fortified by addition of tap water, the assessed dilutions (tap water and assay) were given on two different regions of the tongue to compare the taste impressions. The panelists had to determine the dilution at which a difference between sample and tap water could be found.

Row | SMILES | isoastringency: concentration needed to reach isointensity of astringent perception with catechin solution [1] [µmol/L] | taste threshold [2] [µmol/L] | threshold concentration, times lower than the threshold concentration of catechin [2]
1 | CC(=O)/C=C/C=C/c1ccc(O[C@@H]2OC(CO)[C@@H](O)C(O)C2O)c(O)c1 (stereo partly drawn) [(3E,5E)-6-[3-Hydroxy-4-O-β-D-glucopyranoside-phenyl]-hexa-3,5-dien-2-one] | 200 | 4.0 | about 100 times
2 | CC(=O)CC/C=C/c1ccc(O[C@@H]2OC(CO)[C@@H](O)C(O)C2O)c(O)c1 (stereo partly drawn) [(E)-6-(3-hydroxyphenyl)-(4-O-β-D-glucopyranoside)hex-5-en-2-one] | 120 | 4.3 | about 100 times
